Laboratory results reported in patent publication US6737383B1, “Herbicidal oxadiazolidines” (priority 1999, dated 2004).

Assays:
[1] = system: cocklebur; experiment: Test B pre/postemergence cocklebur; format: in vivo, Xanthium strumarium
Procedure, shortened: (§1)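 Response is a visual 0-to-10 score relative to untreated plants, where 0 means no effect and 10 means complete control, taken twelve to sixteen days after application. Treatments went onto soil at planting and onto foliage of 1- to 4-leaf plants, using a surfactant-containing non-phytotoxic solvent.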

[2] = system: giant foxtail; experiment: Test B pre/postemergence giant foxtail; format: in vivo, Setaria faberii
Procedure, shortened: as §1

[3] = system: morningglory; experiment: Test B pre/postemergence morningglory; format: in vivo, Ipomoea hederacea
Procedure, shortened: as §1

[4] = system: bamyardgrass; experiment: Test B flood test barnyardgrass; format: in vivo, Echinochloa crus-galli
Procedure, shortened: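 Each value is a visual injury score relative to controls, with 10 meaning complete control and 0 no effect. Evaluation took place twelve to sixteen days after the 2-leaf-stage plants were treated and kept in the greenhouse.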

[5] = system: Alexandergrass; experiment: Test D Alexandergrass; format: in vivo, Brachiaria plantaginea; conditions: Preemergence, 0 to 100 scale
Procedure, shortened: (§2)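 Visual injury ratings, 0 = no injury to 100 = complete control, taken 14 to 21 days after treatment. Test chemicals were in a surfactant-containing non-phytotoxic solvent; preemergence treatments went onto the sandy loam surface of seeded greenhouse pots within one day of sowing.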

[6] = system: goosegrass; experiment: Test D goosegrass; format: in vivo, Eleusine indica; conditions: Preemergence, 0 to 100 scale
Procedure, shortened: as §2

[7] = system: purple nutsedge; experiment: Test D purple nutsedge; format: in vivo, Cyperus rotundus; conditions: Preemergence, 0 to 100 scale
Procedure, shortened: as §2

[8] = system: tall mallow; experiment: Test D tall mallow; format: in vivo, Malva sylvestris; conditions: Preemergence, 0 to 100 scale
Procedure, shortened: as §2

[9] = system: winter wheat; experiment: Test E winter wheat; format: in vivo, Triticum aestivum; conditions: Postemergence
Procedure, shortened: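 For postemergence, plants at the 1- to 4-leaf stage, in a 60:40 mix of sandy loam and potting mix, treated with compound formulated in a surfactant-containing non-phytotoxic solvent. Visual assessment versus untreated controls followed roughly 21–28 days in the greenhouse.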

[10] = system: blackgrass; experiment: Test E blackgrass; format: in vivo, Alopecurus myosuroides; conditions: Preemergence
[11] = system: green foxtail; experiment: Test E green foxtail; format: in vivo, Setaria viridis; conditions: Preemergence
[12] = system: Italian ryegrass; experiment: Test E Italian ryegrass; format: in vivo, Lolium multiflorum; conditions: Preemergence
[13] = system: winter wheat; experiment: Test E winter wheat; format: in vivo, Triticum aestivum; conditions: Preemergence
[14] = system: wild oat; experiment: Test E wild oat; format: in vivo, Avena fatua; conditions: Preemergence, 0 to 100 scale where 0 is no effect and 100 is complete control
[15] = system: winter barley; experiment: Test E winter barley; format: in vivo, Hordeum vulgare; conditions: Preemergence
[16] = Postemergence, Rate 125 g/ha, scale of 0 to 10 where 0 is no effect and 10 is complete control
[17] = Postemergence, Rate 250 g/ha, scale 0 to 10, 0 no effect, 10 complete control
[18] = Preemergence, Rate 62 g/ha, scale 0 to 10 (0 no effect, 10 complete control)
[19] = Preemergence, Rate 125 g/ha, scale 0 to 10 (0 no effect, 10 complete control)
[20] = Preemergence, Rate 500 g/ha, scale 0 to 10 (0 no effect, 10 complete control)
[21] = Rate 62 g/ha, Postemergence, scale of 0 to 10 where 0 is no effect and 10 is complete control
[22] = Rate 500 g/ha, Postemergence, scale 0 to 10, 0 no effect, 10 complete control
[23] = Preemergence, Rate 250 g/ha, scale of 0 to 10 where 0 is no effect and 10 is complete control
[24] = Rate 16 g/ha, 0 no injury, 100 complete control
[25] = Rate 32 g/ha, 0 no injury, 100 complete control
[26] = Rate 64 g/ha, 0 no injury, 100 complete control
[27] = Rate 125 g/ha, 0 no injury, 100 complete control
[28] = Rate 500 g/ha, 0 to 100 scale where 0 is no effect and 100 is complete control
[29] = Rate 1000 g/ha, 0 to 100 scale where 0 is no effect and 100 is complete control

CC(C)N(C(=O)n1oc(=O)n(Cc2cccs2)c1=O)c1ccccc1 [Compound 103]
Cocklebur plant response rating [1, 16]: 0 | Cocklebur plant response rating [1, 17]: 0 | Cocklebur plant response rating [1, 18]: 0 | Plant response rating, Cocklebur [1, 19]: 0 | Cocklebur plant response rating [1, 20]: 0 | Cocklebur plant response rating [1, 21]: 0 | Cocklebur plant response rating [1, 22]: 0 | Giant foxtail plant response rating [2, 16]: 1 | Giant foxtail plant response rating [2, 17]: 3 | Giant foxtail plant response rating [2, 18]: 8 | Plant response rating, Giant foxtail [2, 19]: 9 | Plant response rating, Giant foxtail [2, 23]: 9 | Giant foxtail plant response rating [2, 20]: 9 | Giant foxtail plant response rating [2, 21]: 0 | Giant foxtail plant response rating [2, 22]: 7 | Morningglory plant response rating [3, 16]: 10 | Morningglory plant response rating [3, 17]: 10 | Morningglory plant response rating [3, 18]: 0 | Plant response rating, Morningglory [3, 19]: 0 | Plant response rating, Morningglory [3, 23]: 0 | Morningglory plant response rating [3, 20]: 0 | Morningglory plant response rating [3, 21]: 8 | Morningglory plant response rating [3, 22]: 10 | Barnyardgrass plant response rating ([4]; Rate 250 g/ha, headed Pre-emergence (flood test species), scale 0 to 10 (0 no effect, 10 complete control)): 0 | Plant response rating, Barnyardgrass ([4]; Rate 500 g/ha, headed Pre-emergence (flood test species), scale 0 to 10 (0 no effect, 10 complete control)): 0 | Barnyardgrass plant response rating ([4]; Rate 1000 g/ha, Pre-emergence (as headed), scale 0 to 10): 0 | Barnyardgrass plant response rating ([4]; Rate 2000 g/ha, Pre-emergence (as headed), scale 0 to 10, 0 no effect, 10 complete control): 0 | Plant response rating, Alexandergrass [5, 24]: 0 | Plant response rating, Alexandergrass [5, 25]: 0 | Plant response rating, Alexandergrass [5, 26]: 0 | Plant response rating, Alexandergrass [5, 27]: 40 | Plant response rating, Alexandergrass ([5]; Rate 250 g/ha): 85 | Plant response rating, Alexandergrass ([5]; Rate 500 g/ha): 95 | Plant response rating, Goosegrass [6, 24]: 0 | Plant response rating, Goosegrass [6, 25]: 30 | Plant response rating, Goosegrass [6, 26]: 65 | Plant response rating, Goosegrass [6, 27]: 85 | Plant response rating, Goosegrass ([6]; Rate 250 g/ha): 98 | Plant response rating, Goosegrass ([6]; Rate 500 g/ha): 100 | Plant response rating, Purple nutsedge [7, 24]: 0 | Plant response rating, Purple nutsedge [7, 25]: 0 | Purple nutsedge plant response rating [7, 26]: 0 | Purple nutsedge plant response rating [7, 27]: 0 | Plant response rating, Purple nutsedge ([7]; Rate 250 g/ha): 0 | Plant response rating, Purple nutsedge ([7]; Rate 500 g/ha): 10 | Plant response rating, Tall Mallow [8, 24]: 0 | Plant response rating, Tall Mallow [8, 25]: 0 | Tall Mallow plant response rating [8, 26]: 0 | Tall Mallow plant response rating [8, 27]: 0 | Plant response rating, Tall Mallow ([8]; Rate 250 g/ha): 0 | Plant response rating, Tall Mallow ([8]; Rate 500 g/ha): 0 | Plant response rating, Wheat (winter) ([9]; Rate 250 g/ha, 0 to 100 scale (0 no effect, 100 complete control)): 0 | Plant response rating, Wheat (winter) ([9]; Rate 1000 g/ha, 0 to 100 scale, 0 is no effect and 100 is complete control): 10 | Plant response rating, Wheat (winter) ([9]; Rate 500 g/ha, 0 to 100 scale, 0 no effect, 100 complete control): 0 | Plant response rating, Blackgrass ([10]; Rate 250 g/ha, 0 to 100 scale): 30 | Plant response rating, Blackgrass [10, 28]: 50 | Plant response rating, Blackgrass [10, 29]: 70 | Plant response rating, Green foxtail ([11]; Rate 250 g/ha, 0 to 100 scale): 70 | Plant response rating, Green foxtail [11, 28]: 70 | Plant response rating, Green foxtail [11, 29]: 100 | Plant response rating, I. Ryegrass ([12]; Rate 250 g/ha, 0 to 100 scale): 50 | Plant response rating, I. Ryegrass [12, 28]: 50 | Plant response rating, I. Ryegrass [12, 29]: 70 | Plant response rating, Wheat (winter) ([13]; Rate 250 g/ha, 0 to 100 scale): 20 | Plant response rating, Wheat (winter) [13, 28]: 30 | Plant response rating, Wheat (winter) [13, 29]: 30 | Plant response rating, Wild oat ([14]; Rate 500 g/ha): 50 | Plant response rating, Wild oat ([14]; Rate 1000 g/ha): 70 | Plant response rating, Barley (winter) ([15]; Rate 250 g/ha, 0 to 100 scale): 30 | Plant response rating, Barley (winter) [15, 28]: 40 | Plant response rating, Barley (winter) [15, 29]: 50
